What follows are compounds tested against T1, IRAK4 (Homo sapiens, UniProt Q9NWZ3) (assay: IRAK-4 activity inhibition assay (Caliper, Peptide 8, 37 μM ATP)). Settings: 3.5 nM IRAK4, 1.5 μM Peptide 8, 37 μM ATP, 28° C. 40 minutes; read-out: IRAK-4 activity inhibition IC50.
T1 construct: purchased CARNA Bioscience 09-145
T1 sequence (Q9NWZ3 1-460): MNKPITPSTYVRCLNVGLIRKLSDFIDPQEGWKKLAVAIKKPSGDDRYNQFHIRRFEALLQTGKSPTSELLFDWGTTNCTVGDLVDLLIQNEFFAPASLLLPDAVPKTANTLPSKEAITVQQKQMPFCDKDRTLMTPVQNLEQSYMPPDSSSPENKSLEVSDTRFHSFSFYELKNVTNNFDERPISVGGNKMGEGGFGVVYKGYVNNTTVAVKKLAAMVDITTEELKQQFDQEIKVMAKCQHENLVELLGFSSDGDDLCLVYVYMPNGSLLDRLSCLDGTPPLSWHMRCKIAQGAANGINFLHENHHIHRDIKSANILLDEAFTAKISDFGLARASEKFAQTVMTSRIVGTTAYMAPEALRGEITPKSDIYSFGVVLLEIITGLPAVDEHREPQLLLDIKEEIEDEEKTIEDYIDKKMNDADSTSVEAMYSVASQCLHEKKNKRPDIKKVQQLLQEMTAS
Format: biochemical
Procedure: A 1× kinase base buffer was prepared from 50 mM HEPES, pH 7.5 and 0.0015% Brij-35. A stop buffer was prepared from 100 mM HEPES, pH 7.5, 0.015% Brij-35, 0.2% Coating Reagent #3, and 50 mM EDTA.
Test compound was diluted to 50× of the final desired highest inhibitor concentration in reaction by 100% DMSO. 100 ul of this compound dilution was transferred to a well in a 96-well plate.
Test compound was serially diluted by transferring 30 μl to 60 μl of 100% DMSO in the next well and so forth for a total of 10 concentrations. 100 μl of 100% DMSO was added to two empty wells for no compound control and no enzyme control in the same 96-well plate.
A new 96-well plate was marked as intermediate plate. 5 μl of compound serial dilution was transferred from source plate to the corresponding wells of the intermediate plate. 45 μl of 1× kinase base buffer (KB buffer) was added to each well of the intermediate plate. The intermediate plate was placed for 10 min on a shaker.
5 μl of each well was transferred from the 96-well intermediate plate to a 384-well plate in duplicates. […] A2 of the 96-well plate is transferred to A3 and A4 of the 384-well plate, and so on.
IRAK4 and DTT in 1× kinase base buffer was added.
Assay plate already contained 5 μl of compound in 10% DMSO. Added 10 μl of 2.5× enzyme solution to each well of the 384-well assay plate, except no enzyme control wells. […] Added 10 μl of 1× kinase base buffer to no enzyme control wells in the assay plate. Incubated at room temperature for 10 min.
Added 10 μl of 2.5× peptide solution to each well of the 384-well assay plate. […] Incubated at 28° C. for 40 minutes. Added 25 μl of stop buffer to stop reaction. Collected data on Caliper.
Copied conversion % data from Caliper program. Converted conversion % values to percent inhibition values. Percent inhibition=(max−conversion %)/(max−min)*100, where “max” means the conversion % of DMSO control and “min” means the conversion % of no enzyme control.
The compound numbers correspond to the compound numbers in Table 1. […] “NA” stands for “not assayed.”

Q: For `CN(C(=O)Cc1cccc(Cl)c1)[C@H]1CC[C@H](Nc2ncnc3sc4c(c23)CCC4)CC1` [Compound I-102, 2-(3-chlorophenyl)-N-methyl-N-[4-([7-thia-9,11-diazatricyclo[6.4.0.0^[2,6]]dodeca-1(8),2(6),9,11-tetraen-12-yl]amino)cyclohexyl]acetamide], which IC50 is on record?
A: 20 to 50 µM

Q: For `CN(Cc1ccncc1F)[C@H]1CC[C@H](Nc2ncnc3sc4c(c23)CCC4)CC1` [Compound I-111, 1-N-[(3-fluoropyridin-4-yl)methyl]-1-N-methyl-4-N-[7-thia-9,11-diazatricyclo[6.4.0.0^[2,6]]dodeca-1(12),2(6),8,10-tetraen-12-yl]cyclohexane-1,4-diamine], which IC50 is on record?
A: < 5 µM

Q: For `CCC1CCc2c(sc3ncnc(N[C@H]4CC[C@H](N)CC4)c23)C1` (stereo partly drawn) [Compound I-39, trans-N^1-(7-ethyl-5,6,7,8-tetrahydrobenzo[4,5]thieno[2,3-d]pyrimidin-4-yl)cyclohexane-1,4-diamine], which IC50 is on record?
A: < 5 µM

Q: For `O[C@H]1CCC[C@H](Nc2ncnc3sc4c(c23)CCC4)C1` (relative stereo) [Compound I-22, trans-3-((6,7-dihydro-5H-cyclopenta[4,5]thieno[2,3-d]pyrimidin-4-yl)amino)cyclohexanol], which IC50 is on record?
A: 5 to 20 µM

Q: `Cc1sc2ncnc(N[C@H]3CC[C@H](N)CC3)c2c1C` [Compound I-57, trans-N^1-(5,6-dimethylthieno[2,3-d]pyrimidin-4-yl)cyclohexane-1,4-diamine] was tested. Which IC50 did it give?
A: < 5 µM

Q: For `c1nc(N[C@H]2CC[C@@H](N3CCOCC3)CC2)c2c3c(sc2n1)CCC3` [Compound I-160, N-((1s,4s)-4-morpholinocyclohexyl)-6,7-dihydro-5H-cyclopenta[4,5]thieno[2,3-d]pyrimidin-4-amine], which IC50 is on record?
A: 5 to 20 µM

Q: How did the IC50 turn out when `CN(C(=O)Cc1ccccn1)[C@H]1CC[C@H](Nc2ncnc3sc4c(c23)CCC4)CC1` [Compound I-103, N-methyl-2-(pyridin-2-yl)-N-[4-([7-thia-9,11-diazatricyclo[6.4.0.0^[2,6]]dodeca-1(8),2(6),9,11-tetraen-12-yl]amino)cyclohexyl]acetamide] was run?
A: 20 to 50 µM

Q: `CCN(CC)[C@H]1CC[C@H](Nc2ncnc3sc4c(c23)CCC4)CC1` [Compound I-72, trans-N^1-(6,7-dihydro-5H-cyclopenta[4,5]thieno[2,3-d]pyrimidin-4-yl)-N^4,N^4-diethylcyclohexane-1,4-diamine] was tested. Which IC50 did it give?
A: < 5 µM

Q: With `CC1CCc2c(sc3ncnc(N4CCN(S(=O)(=O)c5ccc(C(C)(C)C)cc5)CC4)c23)C1` (stereo not drawn) [Compound I-23] as the compound, how does the IC50 read?
A: 20 to 50 µM

Q: How did the IC50 turn out when `NCC1CCN(c2ncnc3sc4c(c23)CCC4)CC1` [Compound I-63] was run?
A: 5 to 20 µM

Q: With `CN(CCC(N)=O)[C@H]1CC[C@H](Nc2ncnc3sc4c(c23)CCC4)CC1` [Compound I-109, 3-[methyl[4-([7-thia-9,11-diazatricyclo[6.4.0.0^[2,6]]dodeca-1(8),2(6),9,11-tetraen-12-yl]amino)cyclohexyl]amino]propanamide] as the compound, how does the IC50 read?
A: < 5 µM

Q: For `CCN[C@H]1CC[C@H](Nc2ncnc3sc4c(c23)CCC4)CC1` [Compound I-71, trans-N^1-(6,7-dihydro-5H-cyclopenta[4,5]thieno[2,3-d]pyrimidin-4-yl)-N^4-ethylcyclohexane-1,4-diamine], which IC50 is on record?
A: < 5 µM

Q: How did the IC50 turn out when `FC(F)(F)CN[C@H]1CC[C@H](Nc2ncnc3sc4c(c23)CCC4)CC1` [Compound I-138, 1-N-[7-thia-9,11-diazatricyclo[6.4.0.0^[2,6]]dodeca-1(8),2(6),9,11-tetraen-12-yl]-4-N-(2,2,2-trifluoroethyl)cyclohexane-1,4-diamine] was run?
A: 5 to 20 µM

Q: Which IC50 does the source give for `CC(C)N[C@H]1CC[C@@H](Nc2ncnc3sc4c(c23)CCC4)CC1` [Compound I-161] here?
A: > 50 µM

Q: How did the IC50 turn out when `c1ccc(CCN[C@H]2CC[C@H](Nc3ncnc4sc5c(c34)CCC5)CC2)cc1` [Compound I-115, 1-N-(2-phenylethyl)-4-N-[7-thia-9,11-diazatricyclo[6.4.0.0^[2,6]]dodeca-1(12),2(6),8,10-tetraen-12-yl]cyclohexane-1,4-diamine] was run?
A: < 5 µM

Q: Which IC50 does the source give for `CN(CC(=O)N1CCOCC1)[C@H]1CC[C@H](Nc2ncnc3sc4c(c23)CCC4)CC1` [Compound I-130, 2-[methyl[4-([7-thia-9,11-diazatricyclo[6.4.0.0[2,6]]dodeca-1(12),2(6),8,10-tetraen-12-yl]amino)cyclohexyl]amino]-1-(morpholin-4-yl)ethan-1-one] here?
A: < 5 µM

Q: For `CC1CCc2sc3ncnc(N4CCC(C(N)=O)CC4)c3c2C1` (stereo not drawn) [Compound I-36], which IC50 is on record?
A: 5 to 20 µM

Q: How did the IC50 turn out when `CC1CCc2sc3ncnc(NC4CCCC(O)C4)c3c2C1` (mixture of isomers) [Compound I-35, 3-((6-methyl-5,6,7,8-tetrahydrobenzo[4,5]thieno[2,3-d]pyrimidin-4-yl)amino)cyclohexanol] was run?
A: 5 to 20 µM

Q: With `c1nc(N[C@H]2CC[C@H](N3CCC3)CC2)c2c3c(sc2n1)CCC3` [Compound I-158, N-[4-(azetidin-1-yl)cyclohexyl]-7-thia-9,11-diazatricyclo[6.4.0.0^[2,6]]dodeca-1(8),2(6),9,11-tetraen-12-amine] as the compound, how does the IC50 read?
A: < 5 µM

Q: For `c1nc(N[C@H]2CC[C@@H](N3CCC3)CC2)c2c3c(sc2n1)CCC3` [Compound I-159, N-((1s,4s)-4-(azetidin-1-yl)cyclohexyl)-6,7-dihydro-5H-cyclopenta[4,5]thieno[2,3-d]pyrimidin-4-amine], which IC50 is on record?
A: 20 to 50 µM

Q: For `CN(C)[C@H]1CC[C@H](Oc2ncnc3sc4c(c23)CCC4)CC1` [Compound I-67, trans-4-((6,7-dihydro-5H-cyclopenta[4,5]thieno[2,3-d]pyrimidin-4-yl)oxy)-N,N-dimethylcyclohexanamine], which IC50 is on record?
A: < 5 µM

Q: Which IC50 does the source give for `CC1(C)CCc2sc3ncnc(N[C@H]4CC[C@H](N)CC4)c3c2C1` [Compound I-38, trans-N^1-(6,6-dimethyl-5,6,7,8-tetrahydrobenzo[4,5]thieno[2,3-d]pyrimidin-4-yl)cyclohexane-1,4-diamine] here?
A: < 5 µM

Q: How did the IC50 turn out when `CN(C)CCN1CCN(c2ncnc3sc4c(c23)CCC4)CC1` [Compound I-150, 2-(4-(6,7-dihydro-5H-cyclopenta[4,5]thieno[2,3-d]pyrimidin-4-yl)piperazin-1-yl)-N,N-dimethylethanamine] was run?
A: 20 to 50 µM

Q: Which IC50 does the source give for `CN(Cc1ccco1)[C@H]1CC[C@H](Nc2ncnc3sc4c(c23)CCC4)CC1` [Compound I-101, 1-N-(furan-2-ylmethyl)-1-N-methyl-4-N-[7-thia-9,11-diazatricyclo[6.4.0.0^[2,6]]dodeca-1(8),2(6),9,11-tetraen-12-yl]cyclohexane-1,4-diamine] here?
A: < 5 µM

Q: With `N[C@H]1CC[C@@H](Nc2ncnc3sc4c(c23)CCC4)CC1` [Compound I-154, (1s,4s)-N1-(6,7-dihydro-5H-cyclopenta[4,5]thieno[2,3-d]pyrimidin-4-yl)cyclohexane-1,4-diamine] as the compound, how does the IC50 read?
A: 5 to 20 µM

Q: Which IC50 does the source give for `O=C(O)CN[C@H]1CC[C@H](Oc2ncnc3sc4c(c23)CCC4)CC1` [Compound I-68, 2-((trans-4-((6,7-dihydro-5H-cyclopenta[4,5]thieno[2,3-d]pyrimidin-4-yl)oxy)cyclohexyl)amino)acetic acid] here?
A: 5 to 20 µM

Q: How did the IC50 turn out when `N[C@H]1CC[C@H](Nc2ncnc3sc4c(c23)CCC4)CC1` [Compound I-10, trans-N^1-(6,7-dihydro-5H-cyclopenta[4,5]thieno[2,3-d]pyrimidin-4-yl)cyclohexane-1,4-diamine] was run?
A: < 5 µM

Q: With `C[C@@H](Nc1ncnc2sc3c(c12)CCC3)C(=O)O` [Compound I-153] as the compound, how does the IC50 read?
A: > 50 µM

Q: Which IC50 does the source give for `CC1CCc2sc3ncnc(N[C@H]4CC[C@H](N(C)C)CC4)c3c2C1` (stereo partly drawn) [Compound I-54, trans-N^1,N^1-dimethyl-N^4-(6-methyl-5,6,7,8-tetrahydrobenzo[4,5]thieno[2,3-d]pyrimidin-4-yl)cyclohexane-1,4-diamine] here?
A: < 5 µM

Q: How did the IC50 turn out when `CN(Cc1cccnc1)[C@H]1CC[C@H](Nc2ncnc3sc4c(c23)CCC4)CC1` [Compound I-163, 1-N-methyl-1-N-(pyridin-3-ylmethyl)-4-N-[7-thia-9,11-diazatricyclo[6.4.0.0^[2,6]]dodeca-1(12),2(6),8,10-tetraen-12-yl]cyclohexane-1,4-diamine] was run?
A: < 5 µM
